Values of other authors in US8759371B2, “Heterocyclic compounds and their uses” (Amgen Inc., priority 2010, dated 2014).

Tests used:
[1] = system: rheumatoid arthritis model; details: in vivo
[2] = system: systemic lupus erythematosis model; details: in vivo
[3] = system: passive cutaneous anaphylaxis (PCA); details: absence of functional delta (IC 87114 and p110δ D910A mice)
[4] = system: ovalbumin-induced airway inflammation
p110δ = target: T1, p110δ (Homo sapiens, UniProt O00329)
T1 sequence (O00329 1-1044): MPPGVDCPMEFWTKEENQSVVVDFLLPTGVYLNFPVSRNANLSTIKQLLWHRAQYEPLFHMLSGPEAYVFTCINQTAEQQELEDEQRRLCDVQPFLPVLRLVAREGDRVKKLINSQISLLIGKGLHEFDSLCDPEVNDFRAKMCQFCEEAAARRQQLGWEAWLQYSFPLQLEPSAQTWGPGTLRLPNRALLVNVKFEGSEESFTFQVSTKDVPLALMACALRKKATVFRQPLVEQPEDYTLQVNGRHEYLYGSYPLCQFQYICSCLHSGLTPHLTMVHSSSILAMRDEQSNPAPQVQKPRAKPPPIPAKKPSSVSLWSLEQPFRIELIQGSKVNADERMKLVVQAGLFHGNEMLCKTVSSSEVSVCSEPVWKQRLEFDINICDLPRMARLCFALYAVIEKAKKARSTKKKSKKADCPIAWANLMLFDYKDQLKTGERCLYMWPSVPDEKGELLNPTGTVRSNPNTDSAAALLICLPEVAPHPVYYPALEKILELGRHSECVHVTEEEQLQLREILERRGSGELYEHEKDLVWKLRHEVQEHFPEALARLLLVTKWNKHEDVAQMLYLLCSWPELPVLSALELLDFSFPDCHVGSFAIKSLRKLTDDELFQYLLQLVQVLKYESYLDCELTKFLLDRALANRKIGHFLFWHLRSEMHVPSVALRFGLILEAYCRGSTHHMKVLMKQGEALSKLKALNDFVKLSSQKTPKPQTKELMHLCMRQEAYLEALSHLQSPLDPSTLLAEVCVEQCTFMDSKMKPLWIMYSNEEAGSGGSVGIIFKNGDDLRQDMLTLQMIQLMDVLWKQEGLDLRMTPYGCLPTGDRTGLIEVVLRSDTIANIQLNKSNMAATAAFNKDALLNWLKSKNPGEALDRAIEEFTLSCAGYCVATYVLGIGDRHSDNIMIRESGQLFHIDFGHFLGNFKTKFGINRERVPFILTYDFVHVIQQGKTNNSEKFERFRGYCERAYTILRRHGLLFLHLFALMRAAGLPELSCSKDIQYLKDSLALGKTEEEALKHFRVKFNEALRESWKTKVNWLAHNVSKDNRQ

O=C1NC(=O)/C(=C\c2ccc3nccnc3c2)S1 [AS 605240]
efficacy in mouse model of rheumatoid arthritis [1]: efficacious
onset of disease in model of systemic lupus erythematosis [2]: delay onset of disease

Cc1ccccc1-n1c(Cn2cnc3c(N)ncnc32)nc2cccc(C)c2c1=O [IC87114]
passive cutaneous anaphylaxis (PCA) [3]: significantly reduced
inflammation and disease in murine model of asthma [4]: significantly ameliorate inflammation and disease
inhibits p110δ (p110δ): high nanomolar range (triple digit)
activity against any protein kinases tested (protein kinases): no activity
